In general, mortality refers to the percentage killed.

Common to all, as to format: in vivo
Data set [1] relates to Beet Armyworm (Spodoptera exigua). The experiment in a line: Bioassays on BAW, 128-well diet tray assay. To be noted: for mortality at 50 µg/cm2 / mortality at 0.05 µg/cm2 / mortality at 0.5 µg/cm2 / mortality at 5 µg/cm2: Spodoptera exigua; for mortality at 50 µg/cm2: 168 h, read-out: BAW % Control (or Mortality) rating; for mortality at 0.05 µg/cm2: 0.05 μg/cm^2; for mortality at 0.05 µg/cm2 / mortality at 0.5 µg/cm2 / mortality at 5 µg/cm2: read-out: BAW Percent control (or mortality); for mortality at 0.5 µg/cm2: 0.5 μg/cm^2; for mortality at 5 µg/cm2: 5 μg/cm^2. The method, then:
Bioassays on BAW were conducted using a 128-well diet tray assay. One to five second instar BAW larvae were placed in each well (3 mL) of the diet tray that had been previously filled with 1 mL of artificial diet to which 50 μg/cm^2 of the test molecule (dissolved in 50 μL of 90:10 acetone-water mixture) had been applied (to each of eight wells) and then allowed to dry. Trays were covered with a clear self-adhesive cover and held at 25° C., 14:10 light-dark for five to seven days. Percent mortality was recorded for the larvae in each well; activity in the eight wells was then averaged. The results are indicated in the table entitled “Table ABC: Biological Results” (See Table Section).
(§1) Bioassays on BAW and CL were conducted according to the procedures outlined in Example A: Bioassays on Beet Armyworm (“BAW”) and Cabbage Looper (“CL”) using the indicated concentrations.

The subject of data set [2] is Cabbage Looper (Trichoplusia ni). The experiment in a line: Bioassays on CL, 128-well diet tray assay. To be noted: for mortality at 50 µg/cm2 / mortality at 0.05 µg/cm2 / mortality at 0.5 µg/cm2 / mortality at 5 µg/cm2: Trichoplusia ni; for mortality at 50 µg/cm2: 168 h, read-out: CL % Control (or Mortality) rating; for mortality at 0.05 µg/cm2: 0.05 μg/cm^2; for mortality at 0.05 µg/cm2 / mortality at 0.5 µg/cm2 / mortality at 5 µg/cm2: read-out: CL Percent control (or mortality); for mortality at 0.5 µg/cm2: 0.5 μg/cm^2; for mortality at 5 µg/cm2: 5 μg/cm^2. The method, then:
Bioassays on CL were conducted using a 128-well diet tray assay.
One to five second instar CL larvae were placed in each well (3 mL) of the diet tray that had been previously filled with 1 mL of artificial diet to which 50 μg/cm^2 of the test molecule (dissolved in 50 μL of 90:10 acetone-water mixture) had been applied (to each of eight wells) and then allowed to dry. Trays were covered with a clear self-adhesive cover and held at 25° C., 14:10 light-dark for five to seven days. Percent mortality was recorded for the larvae in each well; activity in the eight wells was then averaged. The results are indicated in the table entitled “Table ABC: Biological Results” (See Table Section).
as §1

The subject of data set [3] is Yellow Fever Mosquito (Aedes aegypti). The data set is described as follows: Bioassays on Yellow Fever Mosquito larvae, 96-well plate. To be noted: from 4000 ppm DMSO master plate, about 1 day-old larvae, 3 days. The method, then:
Master plates containing 400 μg of a molecule dissolved in 100 μL of dimethyl sulfoxide (DMSO) (equivalent to a 4000 ppm solution) are used. A master plate of assembled molecules contains 15 μL per well. To this plate, 135 μL of a 90:10 water:acetone mixture is added to each well. A robot (Biomek® NXP Laboratory Automation Workstation) is programmed to dispense 15 μL aspirations from the master plate into an empty 96-well shallow plate (“daughter” plate). There are 6 reps (“daughter” plates) created per master. The created daughter plates are then immediately infested with YFM larvae.
The day before plates are to be treated, mosquito eggs are placed in Millipore water containing liver powder to begin hatching (4 g. into 400 mL). After the daughter plates are created using the robot, they are infested with 220 μL of the liver powder/larval mosquito mixture (about 1 day-old larvae). After plates are infested with mosquito larvae, a non-evaporative lid is used to cover the plate to reduce drying. Plates are held at room temperature for 3 days prior to grading. After 3 days, each well is observed and scored based on mortality. The results are indicated in the table entitled “Table ABC: Biological Results” (See Table Section). AGRICULTURALLY ACCEPTABLE ACID ADDITION SALTS, SALT DERIVATIVES, SOLVATES, ESTER DERIVATIVES, POLYMORPHS, ISOTOPES, AND RADIONUCLIDES

[4] abbreviates: 50 μg/cm^2 on artificial diet, second instar larvae, five to seven days.

Regarding `O=C(NCCSCC(F)(F)F)c1ccc(/C=C/C(c2cc(Cl)c(Cl)c(Cl)c2)C(F)(F)F)cc1Br` (centres unmarked) [F1, (E)-2-bromo-4-(4,4,4-trifluoro-3-(3,4,5-trichlorophenyl)but-1-en-1-yl)-N-(2-((2,2,2-trifluoroethyl)thio)ethyl)benzamide], the mortality at 50 µg/cm2 in data set [1] (setting [4]) and in data set [2] (setting [4]) was 50 to 100% each time. Besides, the “YFM % Control (or Mortality) rating” value in data set [3] is given as “A (80-100)”.
`O=C(NCC[S+]([O-])Cc1ccccc1)c1ccc(/C=C/C(c2cc(Cl)c(Cl)c(Cl)c2)C(F)(F)F)cc1Br` (centres unmarked) [F2, (E)-N-(2-(Benzylsulfinyl)ethyl)-2-bromo-4-(4,4,4-trifluoro-3-(3,4,5-trichlorophenyl)but-1-en-1-yl)benzamide]: the mortality at 50 µg/cm2 in data set [1] (setting [4]) and in data set [2] (setting [4]) was 50 to 100% each time. For the same compound, the “YFM % Control (or Mortality) rating” value in data set [3] is “A (80-100)”.
In the case of `O=C(NCC[S+]([O-])CC(F)(F)F)c1ccc(/C=C/C(c2cc(Cl)c(Cl)c(Cl)c2)C(F)(F)F)cc1Br` (centres unmarked) [F3, (E)-2-bromo-4-(4,4,4-trifluoro-3-(3,4,5-trichlorophenyl)but-1-en-1-yl)-N-(2-((2,2,2-trifluoroethyl)sulfinyl)ethyl)benzamide], the mortality at 50 µg/cm2 in data set [1] (setting [4]) and in data set [2] (setting [4]) was 50 to 100% throughout. Also, the “YFM % Control (or Mortality) rating” value in data set [3] is on record as “B (More than 0-Less than 80)”.
For `CC[C@H](CSCCC(F)(F)F)NC(=O)c1ccc(/C=C/C(c2cc(Cl)c(Cl)c(Cl)c2)C(F)(F)F)cc1C(F)(F)F` (stereo partly drawn) [F11, 4-((E)-4,4,4-trifluoro-3-(3,4,5-trichlorophenyl)but-1-en-1-yl)-2-(trifluoromethyl)-N—((R)-1-((3,3,3-trifluoropropyl)thio)butan-2-yl)benzamide], the mortality at 50 µg/cm2 in data set [1] (setting [4]) and in data set [2] (setting [4]) was 50 to 100% each time. Further, in data set [3], the “YFM % Control (or Mortality) rating” value is on record as “B (More than 0-Less than 80)”.
For `CC[C@H](CSCC(F)(F)F)NC(=O)c1ccc(/C=C/C(c2cc(Cl)c(Cl)c(Cl)c2)C(F)(F)F)cc1C(F)(F)F` (stereo partly drawn) [F12, 4-((E)-4,4,4-Trifluoro-3-(3,4,5-trichlorophenyl)but-1-en-1-yl)-N—((R)-1-((2,2,2-trifluoroethyl)thio)butan-2-yl)-2-(trifluoromethyl)benzamide], the mortality at 50 µg/cm2 in data set [1] (setting [4]) and in data set [2] (setting [4]) was 50 to 100% each time. The “YFM % Control (or Mortality) rating” value in data set [3] is reported as “A (80-100)”.
Regarding `CC[C@H](CSCC1CC1(F)F)NC(=O)c1ccc(/C=C/C(c2cc(Cl)c(Cl)c(Cl)c2)C(F)(F)F)cc1C(F)(F)F` (stereo partly drawn) [F13, N-((2R)-1-(((2,2-Difluorocyclopropyl)methyl)thio)butan-2-yl)-4-((E)-4,4,4-trifluoro-3-(3,4,5-trichlorophenyl)but-1-en-1-yl)-2-(trifluoromethyl)benzamide], the mortality at 50 µg/cm2 in data set [1] (setting [4]) and in data set [2] (setting [4]) was 50 to 100% in each case. For the same compound, the “YFM % Control (or Mortality) rating” value in data set [3] is reported as “A (80-100)”.
Regarding `CC(C)[C@H](CSCC(F)(F)F)NC(=O)c1ccc(/C=C/C(c2cc(Cl)c(Cl)c(Cl)c2)C(F)(F)F)cc1C(F)(F)F` (stereo partly drawn) [F14, N—((R)-3-Methyl-1-((2,2,2-trifluoroethyl)thio)butan-2-yl)-4-((E)-4,4,4-trifluoro-3-(3,4,5-trichlorophenyl)but-1-en-1-yl)-2-(trifluoromethyl)benzamide], the mortality at 50 µg/cm2 in data set [1] (setting [4]) and in data set [2] (setting [4]) was 50 to 100% throughout. Moreover, the “YFM % Control (or Mortality) rating” value in data set [3] is on record as “A (80-100)”.
Consider `CC[C@H](CS(=O)(=O)CCC(F)(F)F)NC(=O)c1ccc(/C=C/C(c2cc(Cl)c(Cl)c(Cl)c2)C(F)(F)F)cc1C(F)(F)F` (stereo partly drawn) [F21, 4-((E)-4,4,4-Trifluoro-3-(3,4,5-trichlorophenyl)but-1-en-1-yl)-2-(trifluoromethyl)-N—((R)-1-((3,3,3-trifluoropropyl)sulfonyl)butan-2-yl)benzamide], for which the mortality at 50 µg/cm2 in data set [1] (setting [4]) and in data set [2] (setting [4]) was 50 to 100% in each case. Further, the “YFM % Control (or Mortality) rating” value in data set [3] was “A (80-100)”.
Turning to `C[C@H](CS(=O)(=O)CC(F)(F)F)NC(=O)c1ccc(/C=C/C(c2cc(Cl)c(Cl)c(Cl)c2)C(F)(F)F)cc1C(F)(F)F` (stereo partly drawn) [F24, 4-((E)-4,4,4-Trifluoro-3-(3,4,5-trichlorophenyl)but-1-en-1-yl)-N—((R)-1-((2,2,2-trifluoroethyl)sulfonyl)propan-2-yl)-2-(trifluoromethyl)benzamide], the mortality at 50 µg/cm2 in data set [1] (setting [4]) fell in the range of 50 to 100%. Moreover, in data set [1], the mortality at 0.05 µg/cm2 was found to be 100%, the mortality at 0.5 µg/cm2 came to 100% and the mortality at 5 µg/cm2 turned out to be 100%. Further, in data set [2] (setting [4]), the mortality at 50 µg/cm2 lay in the range of 50 to 100%. In addition, in data set [2], the mortality at 0.05 µg/cm2 came to 100%, the mortality at 0.5 µg/cm2 stood at 100% and the mortality at 5 µg/cm2 was determined as 100%. In addition, the “YFM % Control (or Mortality) rating” value in data set [3] is given as “A (80-100)”.
`CS(=O)(=O)CC[C@@H](NC(=O)c1ccc(/C=C/C(c2cc(Cl)c(Cl)c(Cl)c2)C(F)(F)F)cc1C(F)(F)F)C(=O)NCC(F)(F)F` (stereo partly drawn) [F27, N—((R)-4-(Methylsulfonyl)-1-oxo-1-((2,2,2-trifluoroethyl)amino)butan-2-yl)-4-((E)-4,4,4-trifluoro-3-(3,4,5-trichlorophenyl)but-1-en-1-yl)-2-(trifluoromethyl)benzamide]: the “BAW % Control (or Mortality) rating” value in data set [1] (setting [4]) is “A (50-100)”. For the same compound, the “CL % Control (or Mortality) rating” value in data set [2] (setting [4]) is listed as “A (50-100)”. Besides, the “YFM % Control (or Mortality) rating” value in data set [3] is on record as “A (80-100)”.
On to `C[C@H](CSCC(F)(F)F)NC(=O)c1ccc(/C=C/C(c2ccc(Cl)c(Cl)c2)C(F)(F)F)cc1Br` (stereo partly drawn) [F137, 2-Bromo-4-((E)-3-(3,4-dichlorophenyl)-4,4,4-trifluorobut-1-en-1-yl)-N—((R)-1-((2,2,2-trifluoroethyl)thio)propan-2-yl)benzamide], for which the mortality at 50 µg/cm2 in data set [1] (setting [4]) and in data set [2] (setting [4]) was 50 to 100% in each case.
In the case of `C[C@H](CSCC(F)(F)F)NC(=O)c1ccc(/C=C/C(c2cc(Cl)c(Cl)c(Cl)c2)C(F)(F)F)cc1` (stereo partly drawn) [FC74, 4-((E)-4,4,4-Trifluoro-3-(3,4,5-trichlorophenyl)but-1-en-1-yl)-N—((R)-1-((2,2,2-trifluoroethyl)thio)propan-2-yl)benzamide], the mortality at 50 µg/cm2 in data set [1] (setting [4]) and in data set [2] (setting [4]) was 50 to 100% throughout.
As to `C[C@H](C[S+]([O-])CC(F)(F)F)NC(=O)c1ccc(/C=C/C(c2cc(Cl)c(Cl)c(Cl)c2)C(F)(F)F)cc1` (stereo partly drawn) [FC77, 4-((E)-4,4,4-Trifluoro-3-(3,4,5-trichlorophenyl)but-1-en-1-yl)-N-((2R)-1-((2,2,2-trifluoroethyl)sulfinyl)propan-2-yl)benzamide], the mortality at 50 µg/cm2 in data set [1] (setting [4]) and in data set [2] (setting [4]) was 50 to 100% each time.
Take `C[C@H](CS(=O)(=O)CC(F)(F)F)NC(=O)c1ccc(/C=C/C(c2cc(Cl)c(Cl)c(Cl)c2)C(F)(F)F)cc1` (stereo partly drawn) [FC78, 4-((E)-4,4,4-Trifluoro-3-(3,4,5-trichlorophenyl)but-1-en-1-yl)-N—((R)-1-((2,2,2-trifluoroethyl)sulfonyl)propan-2-yl)benzamide]: in data set [1] (setting [4]), the mortality at 50 µg/cm2 lay in the range of 50 to 100%. Moreover, in data set [1], the mortality at 0.05 µg/cm2 is 0%, the mortality at 0.5 µg/cm2 came to 19% and the mortality at 5 µg/cm2 turned out to be 100%. The mortality at 50 µg/cm2 in data set [2] (setting [4]) was 50 to 100%. In data set [2], the mortality at 0.05 µg/cm2 came to 0%, the mortality at 0.5 µg/cm2 was 7% and the mortality at 5 µg/cm2 was determined as 100%.

The values are drawn from patent US20170210723A1, “MOLECULES HAVING PESTICIDAL UTILITY, AND INTERMEDIATES, COMPOSITIONS, AND PROCESSES, RELATED THERETO” (priority 2016, published 2017).
